Columns and labels:
Details in all cases: average of at least two experiments
[1] = biological target: 5HT5 receptor (Homo sapiens (Human), UniProt P47898); assay: Secondary radioligand binding assay, 5HT5; set-up: key: “—” indicates that a binding interaction was not detected;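 further: competitive radioligand displacement on membranes from transfected cell lines, incubated at room temperature in the dark, filter-retained radioactivity counted by liquid scintillation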
Protocol: (§8) Assay Buffer: Standard Binding Buffer (50 mM Tris-HCl, 10 mM MgCl2, 1 mM EDTA, pH 7.4)
(§9) Membrane Fraction Source: Transiently or stably transfected cell lines (e.g., HEK293, COS, CHO, NIH3T3)

[2] = biological target: dopamine D3 receptor (Homo sapiens (Human), UniProt P35462); assay: Secondary radioligand binding assay, D3; set-up: key to Ki D3: “—” indicates that a binding interaction was not detected
Protocol: (§1) 1. Secondary Radioligand Binding Assays
(§2) The detailed experimental protocols for the radioligand and functional receptor assays are available on the NIMH PDSP website at http://pdsp.med.unc.edu/UNC-CH %20Protocol %20Book.pdf.
(§3) Radioligand is diluted to five times the assay concentration (see Table 18) in Standard Binding Buffer. Typically, the assay concentration of radioligand is a value between one half the KD and the KD of a particular radioligand at its target. 50 μl aliquots of radioligand are dispensed into the wells of a 96-well plate containing 100 μl of Standard Binding Buffer. Then, duplicate 50 μl aliquots of the test and reference compound dilutions are added.
(§4) The 250 μl reactions are incubated at room temperature and shielded from light (to prevent photolysis of light-sensitive ligands) for 1.5 hours, then harvested by rapid filtration onto Whatman GF/B glass fiber filters pre-soaked with 0.3% polyethyleneimine using a 96-well Brandel harverster. Four rapid 500 μl washes are performed with chilled Standard Binding Buffer to reduce non-specific binding. Filters are placed in 6 ml scintillation tubes and allowed to dry overnight. The next day, 4 ml of EcoScint scintillation cocktail (National Diagnostics) are added to each tube. The tubes are capped, labeled, and counted by liquid scintillation counting. […] The filter mats are dried, then scintillant is melted onto the filters and the radioactivity retained on the filters is counted in a Microbeta scintillation counter.
(§5) Raw data (dpm) representing total radioligand binding (i.e. specific+non-specific binding) are plotted as a function of the logarithm of the molar concentration of the competitor (i.e. test or reference compound).
(§6) B. Dopamine Receptors: D1, D2, D3, D4, D5 Assay Buffers: Dopamine Binding Buffer (50 mM NaCl, 50 mM HEPES-HCl, 5 mM MgCl2, 0.5 mM EDTA, pH 7.4) Membrane Fraction Source: Transiently or stably transfected cell lines (e.g. HEK293, COS, CHO, NIH3T3)
(§7) The method is carried out in the manner described for the serotonin receptor assay above. Eleven dilutions (5× assay concentration) of the test and reference (see Table 19) compounds are prepared in Dopamine Binding Buffer by serial dilution, as previously described. Radioligand is diluted to five times the assay concentration (see Table 20) in Dopamine Binding Buffer.

[3] = biological target: 5HT6 receptor (Homo sapiens (Human), UniProt P50406); assay: Secondary radioligand binding assay, 5HT6; set-up: key: “—” indicates that a binding interaction was not detected;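 further: competition displacement of radioligand from membranes of transfected cell lines expressing the receptor, 1.5 h at room temperature, bound radioactivity counted by scintillation after filtration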
Protocol: as §8, §9

[4] = biological target: 5HT3 receptor (Homo sapiens (Human), UniProt P46098); assay: Secondary radioligand binding assay, 5HT3; set-up: key: “—” indicates that a binding interaction was not detected;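 further: radioligand competition binding on membranes from transfected cell lines, 1.5 h incubation at room temperature, filter-retained radioactivity measured by liquid scintillation counting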
Protocol: as §8, §9

[5] = biological target: dopamine D5 receptor (Homo sapiens (Human), UniProt P21918); assay: Secondary radioligand binding assay, D5; set-up: key to Ki D5: “—” indicates that a binding interaction was not detected
Protocol: as §1, §2, §3, §4, §5, §6, §7

[6] = biological target: Alpha1B adrenergic receptor (Homo sapiens (Human), UniProt P35368); assay: Secondary radioligand binding assay, Alpha1B; set-up: key to Ki Alpha1B: “—” indicates that a binding interaction was not detected
Description: 1. Secondary Radioligand Binding Assays The detailed experimental protocols for the radioligand and functional receptor assays are available on the NIMH PDSP website at http://pdsp.med.unc.edu/UNC-CH %20Protocol %20Book.pdf. Raw data (dpm) representing total radioligand binding (i.e. specific+non-specific binding) are plotted as a function of the logarithm of the molar concentration of the competitor (i.e. test or reference compound). […] C. Adrenergic Receptors: α1A, α1B, α2A, α2B, α2C, β1, β2, β3 Assay Buffers: For α1 receptors, α1 Binding Buffer (20 mM Tris-HCl, 145 mM NaCl, pH 7.4); for α2 receptors, α2 Binding Buffer (50 mM Tris-HCl, 5 mM MgCl2, pH 7.7); for β receptors, β Binding Buffer (50 mM Tris-HCl, 3 mM MnCl2, pH 7.7) Membrane Fraction Source: Transiently or stably transfected cell lines (e.g. HEK293, COS, CHO, NIH3T3) Protocol adapted from Arango et al. […] (1990), Gen. Psychiatry, 47: 1038-1047. The method is carried out in the manner described for the serotonin receptor assay above, except where described below. Eleven dilutions (5× assay concentration) of the test and reference (see Table 20) compounds are prepared in the appropriate buffer by serial dilution, as previously described. Radioligand is diluted to five times the assay concentration (see Table 21) in the appropriate buffer. […] Four rapid 500-μl washes are performed with chilled distilled water (for α1 and β receptors) or 0.1% polyethyleneimine (for α2 receptors) to reduce non-specific binding. Filters are placed in 6 ml scintillation tubes and allowed to dry overnight and the samples are treated to obtain data as described above. [table]

[7] = biological target: dopamine D1 receptor (Homo sapiens (Human), UniProt P21728); assay: Secondary radioligand binding assay, D1; set-up: key to Ki D1: “—” indicates that a binding interaction was not detected
Protocol: as §1, §2, §3, §4, §5, §6, §7

[8] = biological target: 5HT7 receptor (Homo sapiens (Human), UniProt P34969); assay: Secondary radioligand binding assay, 5HT7; set-up: key to Ki 5HT7: “—” indicates that a binding interaction was not detected;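 further: competition of test compound with radioligand for binding to membranes from transfected cell lines, 1.5 h incubation at room temperature, filter-bound radioactivity read by liquid scintillation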
Protocol: as §8, §9

[9] = biological target: 5HT1e receptor (Homo sapiens (Human), UniProt P28566); assay: Secondary radioligand binding assay, 5HT1e; set-up: key: “—” indicates that a binding interaction was not detected;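 further: competition binding against a radioligand on membranes from transfected cell lines, 1.5 h at room temperature, bound radioactivity counted by liquid scintillation after filtration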
Protocol: as §8, §9

[10] = biological target: 5HT2b receptor (Homo sapiens (Human), UniProt P41595); assay: Secondary radioligand binding assay, 5HT2b; set-up: key to Ki 5HT2b: “—” indicates that a binding interaction was not detected;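 further: competition binding against a radioligand on membranes from transfected cell lines, 1.5 h incubation at room temperature, filter-retained radioactivity counted by liquid scintillation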
Protocol: as §8, §9

[11] = biological target: 5HT1d receptor (Homo sapiens (Human), UniProt P28221); assay: Secondary radioligand binding assay, 5HT1d; set-up: key to Ki 5HT1d: “—” indicates that a binding interaction was not detected;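 further: competition binding against a radioligand on membranes from transfected cell lines, 1.5 h at room temperature, filter-retained radioactivity counted by liquid scintillation, total binding plotted versus log competitor concentration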
5HT1d receptor, sequence (P28221 whole entry): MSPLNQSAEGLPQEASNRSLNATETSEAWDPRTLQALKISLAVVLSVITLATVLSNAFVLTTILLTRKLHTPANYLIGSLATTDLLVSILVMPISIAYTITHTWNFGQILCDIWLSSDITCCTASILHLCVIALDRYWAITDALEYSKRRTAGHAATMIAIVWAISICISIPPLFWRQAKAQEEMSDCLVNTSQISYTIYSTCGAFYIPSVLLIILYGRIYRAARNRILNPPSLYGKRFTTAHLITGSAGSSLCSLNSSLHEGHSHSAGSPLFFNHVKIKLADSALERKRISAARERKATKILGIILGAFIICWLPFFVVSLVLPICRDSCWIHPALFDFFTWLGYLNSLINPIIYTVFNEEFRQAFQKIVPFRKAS
Protocol: as §8, §9

dopamine D1 receptor, sequence (P21728 whole entry): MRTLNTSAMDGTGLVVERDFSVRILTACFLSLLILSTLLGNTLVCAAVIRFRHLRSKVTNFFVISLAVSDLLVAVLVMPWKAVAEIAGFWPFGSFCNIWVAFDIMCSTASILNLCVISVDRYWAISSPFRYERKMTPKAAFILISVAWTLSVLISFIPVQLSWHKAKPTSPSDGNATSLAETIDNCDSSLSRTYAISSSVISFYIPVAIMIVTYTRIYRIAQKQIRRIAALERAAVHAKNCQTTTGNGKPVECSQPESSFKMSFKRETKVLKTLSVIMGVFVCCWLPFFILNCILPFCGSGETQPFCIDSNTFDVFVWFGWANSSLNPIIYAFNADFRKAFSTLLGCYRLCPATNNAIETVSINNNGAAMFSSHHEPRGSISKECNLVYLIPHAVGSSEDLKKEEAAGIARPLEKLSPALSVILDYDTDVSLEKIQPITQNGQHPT
dopamine D3 receptor, sequence (P35462 whole entry, species assumed): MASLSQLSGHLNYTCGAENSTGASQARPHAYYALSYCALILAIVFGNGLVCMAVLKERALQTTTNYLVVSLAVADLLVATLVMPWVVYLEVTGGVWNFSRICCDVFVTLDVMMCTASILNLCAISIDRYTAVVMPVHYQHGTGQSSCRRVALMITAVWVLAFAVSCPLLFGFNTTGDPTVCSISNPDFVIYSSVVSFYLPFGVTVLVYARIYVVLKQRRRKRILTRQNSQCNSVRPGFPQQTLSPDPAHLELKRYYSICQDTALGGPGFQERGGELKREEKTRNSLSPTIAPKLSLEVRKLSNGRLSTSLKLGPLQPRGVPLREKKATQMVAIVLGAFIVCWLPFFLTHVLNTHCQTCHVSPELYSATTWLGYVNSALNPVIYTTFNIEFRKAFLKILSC
5HT5 receptor, sequence (P47898 whole entry): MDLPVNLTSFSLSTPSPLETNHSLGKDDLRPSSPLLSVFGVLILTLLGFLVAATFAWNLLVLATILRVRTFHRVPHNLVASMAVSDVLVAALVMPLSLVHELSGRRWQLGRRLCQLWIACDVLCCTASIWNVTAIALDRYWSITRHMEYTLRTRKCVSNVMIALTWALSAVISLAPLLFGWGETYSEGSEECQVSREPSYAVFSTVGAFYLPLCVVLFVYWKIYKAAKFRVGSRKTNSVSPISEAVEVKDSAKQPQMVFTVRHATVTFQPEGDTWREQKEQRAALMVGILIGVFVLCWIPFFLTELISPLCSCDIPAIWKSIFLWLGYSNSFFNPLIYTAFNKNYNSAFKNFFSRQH
Alpha1B adrenergic receptor, sequence (P35368 whole entry): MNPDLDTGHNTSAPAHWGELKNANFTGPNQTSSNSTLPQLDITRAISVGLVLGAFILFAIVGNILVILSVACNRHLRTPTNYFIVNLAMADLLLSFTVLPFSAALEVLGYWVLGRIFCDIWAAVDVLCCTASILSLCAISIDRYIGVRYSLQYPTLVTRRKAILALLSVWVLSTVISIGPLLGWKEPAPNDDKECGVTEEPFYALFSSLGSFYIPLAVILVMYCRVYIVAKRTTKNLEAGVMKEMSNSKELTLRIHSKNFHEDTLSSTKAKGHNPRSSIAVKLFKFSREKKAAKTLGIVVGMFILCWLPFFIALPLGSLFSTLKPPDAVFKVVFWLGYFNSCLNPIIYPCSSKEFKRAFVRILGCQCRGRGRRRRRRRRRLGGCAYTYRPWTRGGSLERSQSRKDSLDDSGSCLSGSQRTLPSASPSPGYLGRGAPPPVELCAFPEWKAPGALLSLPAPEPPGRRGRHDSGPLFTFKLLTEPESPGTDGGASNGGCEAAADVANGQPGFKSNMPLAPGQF
5HT7 receptor, sequence (P34969 whole entry): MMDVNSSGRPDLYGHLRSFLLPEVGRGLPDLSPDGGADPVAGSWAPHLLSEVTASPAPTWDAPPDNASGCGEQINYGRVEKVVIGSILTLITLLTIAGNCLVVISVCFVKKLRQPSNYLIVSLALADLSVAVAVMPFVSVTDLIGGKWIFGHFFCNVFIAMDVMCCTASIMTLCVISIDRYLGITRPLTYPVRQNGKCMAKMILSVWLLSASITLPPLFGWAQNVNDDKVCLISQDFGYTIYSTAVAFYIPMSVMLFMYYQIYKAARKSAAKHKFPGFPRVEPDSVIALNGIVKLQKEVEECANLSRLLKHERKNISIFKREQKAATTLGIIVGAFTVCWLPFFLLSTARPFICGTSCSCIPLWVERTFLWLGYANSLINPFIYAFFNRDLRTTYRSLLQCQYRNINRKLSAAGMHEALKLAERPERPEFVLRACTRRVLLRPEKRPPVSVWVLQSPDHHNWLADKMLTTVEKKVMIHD
5HT2b receptor, sequence (P41595 whole entry): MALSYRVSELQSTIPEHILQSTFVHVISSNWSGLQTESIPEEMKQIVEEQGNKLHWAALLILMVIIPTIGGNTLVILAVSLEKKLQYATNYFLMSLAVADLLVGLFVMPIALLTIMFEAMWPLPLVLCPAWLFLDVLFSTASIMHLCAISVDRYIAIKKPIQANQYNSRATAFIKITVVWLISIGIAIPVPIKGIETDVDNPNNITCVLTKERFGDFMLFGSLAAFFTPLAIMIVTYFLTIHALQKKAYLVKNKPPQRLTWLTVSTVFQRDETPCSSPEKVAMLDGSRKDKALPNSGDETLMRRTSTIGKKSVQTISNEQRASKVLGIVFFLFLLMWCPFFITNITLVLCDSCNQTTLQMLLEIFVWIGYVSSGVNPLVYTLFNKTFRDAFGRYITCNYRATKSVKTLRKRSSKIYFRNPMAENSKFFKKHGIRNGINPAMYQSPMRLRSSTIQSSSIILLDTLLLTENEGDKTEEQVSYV
5HT6 receptor, sequence (P50406 whole entry): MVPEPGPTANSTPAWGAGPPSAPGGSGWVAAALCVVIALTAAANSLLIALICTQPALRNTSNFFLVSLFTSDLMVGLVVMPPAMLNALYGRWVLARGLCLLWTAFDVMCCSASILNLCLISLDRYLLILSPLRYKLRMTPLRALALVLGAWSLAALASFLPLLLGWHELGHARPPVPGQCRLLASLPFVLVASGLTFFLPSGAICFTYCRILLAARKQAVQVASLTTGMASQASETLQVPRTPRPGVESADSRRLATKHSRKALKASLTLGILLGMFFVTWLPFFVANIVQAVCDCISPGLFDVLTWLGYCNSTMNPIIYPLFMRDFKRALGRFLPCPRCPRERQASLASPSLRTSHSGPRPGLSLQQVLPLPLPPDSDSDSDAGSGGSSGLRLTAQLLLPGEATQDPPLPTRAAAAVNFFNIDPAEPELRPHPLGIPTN
5HT1e receptor, sequence (P28566 whole entry): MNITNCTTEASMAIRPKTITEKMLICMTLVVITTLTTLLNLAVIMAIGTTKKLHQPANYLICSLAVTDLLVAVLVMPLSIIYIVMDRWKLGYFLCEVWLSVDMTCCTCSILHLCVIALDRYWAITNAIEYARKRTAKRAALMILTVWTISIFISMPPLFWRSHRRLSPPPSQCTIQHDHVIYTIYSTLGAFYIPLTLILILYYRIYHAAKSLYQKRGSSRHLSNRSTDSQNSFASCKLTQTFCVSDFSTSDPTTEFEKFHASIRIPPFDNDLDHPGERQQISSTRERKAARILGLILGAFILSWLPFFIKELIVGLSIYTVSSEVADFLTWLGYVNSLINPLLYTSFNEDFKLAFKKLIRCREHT
5HT3 receptor, sequence (P46098 24-478): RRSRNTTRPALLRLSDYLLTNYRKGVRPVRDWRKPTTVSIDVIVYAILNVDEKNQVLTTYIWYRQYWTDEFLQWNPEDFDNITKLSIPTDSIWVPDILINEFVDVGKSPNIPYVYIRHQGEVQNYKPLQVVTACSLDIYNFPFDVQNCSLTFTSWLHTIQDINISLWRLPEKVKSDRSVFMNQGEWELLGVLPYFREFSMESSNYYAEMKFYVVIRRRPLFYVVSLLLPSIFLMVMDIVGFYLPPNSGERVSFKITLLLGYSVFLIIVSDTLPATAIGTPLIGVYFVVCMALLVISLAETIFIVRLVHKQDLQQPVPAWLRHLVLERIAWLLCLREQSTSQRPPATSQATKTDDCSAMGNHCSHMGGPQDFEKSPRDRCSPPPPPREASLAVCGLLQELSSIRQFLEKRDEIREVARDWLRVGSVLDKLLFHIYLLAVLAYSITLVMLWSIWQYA
dopamine D5 receptor, sequence (P21918 whole entry): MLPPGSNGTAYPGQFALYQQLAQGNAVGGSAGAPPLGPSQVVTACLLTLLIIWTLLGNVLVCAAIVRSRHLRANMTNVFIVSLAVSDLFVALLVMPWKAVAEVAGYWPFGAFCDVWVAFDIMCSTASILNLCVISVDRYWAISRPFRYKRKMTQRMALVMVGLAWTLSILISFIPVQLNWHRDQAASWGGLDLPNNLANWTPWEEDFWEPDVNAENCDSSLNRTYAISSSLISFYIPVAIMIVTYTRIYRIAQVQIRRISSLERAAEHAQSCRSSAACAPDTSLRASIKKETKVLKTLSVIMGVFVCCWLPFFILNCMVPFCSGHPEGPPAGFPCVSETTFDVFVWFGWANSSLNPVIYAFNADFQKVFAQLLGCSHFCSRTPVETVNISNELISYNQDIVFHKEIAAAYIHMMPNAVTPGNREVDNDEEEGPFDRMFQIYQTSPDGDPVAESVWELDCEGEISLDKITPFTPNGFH

Row | SMILES | Ki 5HT5 [1] | Ki D3 [2] | Ki 5HT6 [3] | Ki 5HT3 [4] | Ki D5 [5] | Ki Alpha1B [6] | Ki D1 [7] | Ki 5HT7 [8] | Ki 5HT1e [9] | Ki 5HT2b [10] | Ki 5HT1d [11] | Ki [2] [µM] | Ki [10] [µM] | Ki [7] [µM] | Ki [6] [µM] | Ki [8] [µM] | Ki [11] [µM] | Ki [5] [µM]
1 | O=C(CN1CCO[C@@H](COc2ccccn2)C1)N1CCc2ccccc21 [Compound 14r, (R)-1-(Indolin-1-yl)-2-(2-((pyridin-2-yloxy)methyl)morpholino)ethanone] | — | — | — | — | — | — | — | — | — | — | — |  |  |  |  |  |  | 
2 | c1ccc(OC[C@H]2CN(CCN3CCc4ccccc43)CCO2)nc1 [Compound 15r, (R)-4-(2-(Indolin-1-yl)ethyl)-2-((pyridin-2-yloxy)methyl)morpholine] | — |  | — | — | — | — | — | — | — |  | — | > 10 | 0.6 |  |  |  |  | 
3 | Cc1ccnc(OC[C@H]2CN(CC(=O)N3CCc4ccccc43)CCO2)c1 [Compound 16r] | — | — | — | — | — | — |  | — | — | — | — |  |  | > 10 |  |  |  | 
4 | Cc1ccnc(OC[C@H]2CN(CCN3CCc4ccccc43)CCO2)c1 [Compound 17r, (R)-4-(2-(Indolin-1-yl)ethyl)-2-(((4-methylpyridin-2-yl)oxy)methyl)morpholine] | — | — | — | — | — | — |  | — | — |  | — |  | 0.788 | > 10 |  |  |  | 
5 | O=C(CN1CCO[C@H](COc2ccccc2)C1)N1CCc2ccccc21 [Compound 18s, (S)-1-(Indolin-1-yl)-2-(2-(phenoxymethyl)morpholino)ethanone] | — | — | — | — | — | — | — | — | — |  | — |  | 6.42 |  |  |  |  | 
6 | c1ccc(OC[C@@H]2CN(CCN3CCc4ccccc43)CCO2)cc1 [Compound 19s, (S)-4-(2-(Indolin-1-yl)ethyl)-2-(phenoxymethyl)morpholine] | — |  | — | — | — |  |  |  | — |  |  | 2.83 | 1.44 | 1.35 | 7.21 | 0.468 | 0.59 | 
7 | O=C(CN1CCO[C@@H](COc2cccnc2)C1)N1CCc2ccccc21 [Compound 20r, (R)-1-(Indolin-1-yl)-2-(2-((pyridin-3-yloxy)methyl)morpholino)ethanone] | — | — | — | — | — | — | — | — | — |  | — |  | 8.81 |  |  |  |  | 
8 | O=C(CN1CCO[C@H](COc2cccnc2)C1)N1CCc2ccccc21 [Compound 20s, (S)-1-(Indolin-1-yl)-2-(2-((pyridin-3-yloxy)methyl)morpholino)ethanone] | — | — | — | — | — | — | — | — | — |  | — |  | 7.64 |  |  |  |  | 
9 | c1cncc(OC[C@H]2CN(CCN3CCc4ccccc43)CCO2)c1 [Compound 21r, (R)-4-(2-(Indolin-1-yl)ethyl)-2-((pyridin-3-yloxy)methyl)morpholine] | — | — | — | — | — | — |  | — | — | — | — |  |  | > 10 |  |  |  | 
10 | c1cncc(OC[C@@H]2CN(CCN3CCc4ccccc43)CCO2)c1 [Compound 21s, (S)-4-(2-(Indolin-1-yl)ethyl)-2-((pyridin-3-yloxy)methyl)morpholine] | — |  | — | — |  | — |  | — | — | — | — | 8.36 |  | > 10 |  |  |  | > 10
11 | Clc1cccc(OC[C@H]2CN(CCN3CCc4ccccc43)CCO2)c1 [Compound 23r, (R)-2-((3-Chlorophenoxy)methyl)-4-(2-(indolin-1-yl)ethyl)morpholine] | — | — | — | — | — | — | — | — | — |  | — |  |  |  |  |  |  | 
12 | Clc1cccc(OC[C@@H]2CN(CCN3CCc4ccccc43)CCO2)c1 [Compound 23s, (S)-2-((3-chlorophenoxy)methyl)-4-(2-(indolin-1-yl)ethyl)morpholine] | — |  | — | — | — |  |  | — | — |  |  | 6.65 |  | 2.04 | 6.64 |  | 1.12 | 
13 | COc1cccc(OC[C@@H]2CN(CCN3CCc4ccccc43)CCO2)c1 [Compound 25s, (S)-4-(2-(Indolin-1-yl)ethyl)-2-((3-methoxyphenoxy)methyl)morpholine] | — |  | — | — |  | — |  | — | — |  |  | 8.29 |  | 8.37 |  |  | 1.98 | 8.53

Reference: patent publication US9079895B2, “Morpholino compounds, uses and methods” (University of Dundee, priority 2012, dated 2015)
